From ChEMBL document CHEMBL1201862, “PubChem BioAssay data set” (2004)
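Test compounds were applied to cells in 96-well plates for 48 hours at 5 doses. GI50 = concentration required for 50% inhibition of growth.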 The source made the active and inactive calls. Cut-off read from the data, not from the text of the source: active = GI50 up to about 1.1 µM and inactive = higher.

Tests used:
Test in all cases: NCI anticancer screen, dose series, 48 h
[1] = test system: UACC-257
[2] = test system: U-251
[3] = test system: RXF 393
[4] = test system: HCT-15
[5] = test system: NCI-H522
[6] = test system: SW-620
[7] = test system: OVCAR-4
[8] = test system: 786-0
[9] = test system: SNB-19
[10] = test system: TK-10
[11] = test system: OVCAR-3
[12] = test system: OVCAR-5
[13] = test system: SN12C
[14] = test system: Malme-3M
[15] = test system: ACHN
[16] = test system: SR

Row | Structure (SMILES) | GI50 [1] | GI50 [2] | GI50 [3] | GI50 [4] [µM] | GI50 [5] | GI50 [6] | GI50 [7] | GI50 [8] | GI50 [9] | GI50 [10] | GI50 [11] | GI50 [12] | GI50 [13] | GI50 [14] | GI50 [15] | GI50 [16]
1 | Cc1cc(C)nc(NS(=O)(=O)c2ccc(NC(=O)c3cccc4c(N)c5ccccc5nc34)cc2)n1 | > 100 µM (inactive) | 97.5 µM (inactive) | > 100 µM (inactive) | > 100 | > 100 µM (inactive) | > 100 µM (inactive) | > 100 µM (inactive) | > 100 µM (inactive) | > 100 µM (inactive) | > 100 µM (inactive) | > 100 µM (inactive) | > 100 µM (inactive) | > 100 µM (inactive) | > 100 µM (inactive) | > 100 µM (inactive) | –
2 | O=C(Nc1ccc(Cl)cc1Cl)C(=O)C(C(=O)c1ccc2ccccc2c1)C1OC(=O)c2ccccc21 (stereo not given) | 12.6 µM (inactive) | 2.51 µM (inactive) | 2.16 µM (inactive) | 11.5 | > 10 µM (inactive) | 6.73 µM (inactive) | 10.1 µM (inactive) | 5.97 µM (inactive) | 5.78 µM (inactive) | – | 10.7 µM (inactive) | 4.65 µM (inactive) | 11.7 µM (inactive) | > 10 µM (inactive) | 15.8 µM (inactive) | –
3 | Cc1cnoc1/N=C1\C=C(Nc2oncc2C)C(=O)c2ccccc21 | 65.6 µM (inactive) | > 100 µM (inactive) | > 100 µM (inactive) | 73.1 | – | > 100 µM (inactive) | > 100 µM (inactive) | > 100 µM (inactive) | > 100 µM (inactive) | > 100 µM (inactive) | 9.86 µM (inactive) | > 100 µM (inactive) | > 100 µM (inactive) | > 100 µM (inactive) | > 100 µM (inactive) | > 100 µM (inactive)
4 | Cn1cccc(C(=O)c2ccccc2)c1=O | > 100 µM (inactive) | > 100 µM (inactive) | > 100 µM (inactive) | > 100 | > 100 µM (inactive) | > 100 µM (inactive) | > 100 µM (inactive) | > 100 µM (inactive) | > 100 µM (inactive) | > 100 µM (inactive) | > 100 µM (inactive) | > 100 µM (inactive) | > 100 µM (inactive) | > 100 µM (inactive) | > 100 µM (inactive) | > 100 µM (inactive)
5 | CC(CN(C)C)/C(=N\Nc1ccccc1)c1ccccc1 (stereo not given) | 2.12 µM (inactive) | 1.07 µM (active) | 11.4 µM (inactive) | 0.0955 | 0.889 µM (active) | 0.142 µM (active) | 0.794 µM (active) | 0.499 µM (active) | 3.72 µM (inactive) | 1.02 µM (active) | 1.16 µM (inactive) | 1.38 µM (inactive) | 3.19 µM (inactive) | 10.7 µM (inactive) | 0.242 µM (active) | 0.33 µM (active)
6 | CC(=O)CC(=O)CCCC(=O)Nc1ccc(Cl)cc1Cl | > 100 µM (inactive) | – | – | > 100 | > 100 µM (inactive) | > 100 µM (inactive) | > 100 µM (inactive) | > 100 µM (inactive) | > 100 µM (inactive) | > 100 µM (inactive) | > 100 µM (inactive) | > 100 µM (inactive) | > 100 µM (inactive) | > 100 µM (inactive) | > 100 µM (inactive) | > 100 µM (inactive)
7 | COC(=O)C1=C(c2ccc3c(c2)OCO3)O[C@H](c2cc(OC)c(OC)c(OC)c2)[C@H]1COC(C)=O | 4.4 µM (inactive) | 3.48 µM (inactive) | 1.57 µM (inactive) | 5.68 | – | 3.87 µM (inactive) | 7.48 µM (inactive) | 4.12 µM (inactive) | – | 13.5 µM (inactive) | 1.19 µM (inactive) | 41.8 µM (inactive) | 4.34 µM (inactive) | 1.99 µM (inactive) | 4.91 µM (inactive) | 1.35 µM (inactive)
8 | O=C(Nc1nc2ccc([N+](=O)[O-])cc2s1)C(=O)C(C(=O)c1ccncc1)C1OC(=O)c2ccccc21 (stereo not given) | > 100 µM (inactive) | > 100 µM (inactive) | > 100 µM (inactive) | > 100 | – | > 100 µM (inactive) | > 100 µM (inactive) | > 100 µM (inactive) | > 100 µM (inactive) | – | > 100 µM (inactive) | > 100 µM (inactive) | > 100 µM (inactive) | > 100 µM (inactive) | > 100 µM (inactive) | > 100 µM (inactive)
9 | COc1ccc(S(=O)(=O)N/N=C\c2cc([N+](=O)[O-])cc(I)c2O)c(OC)c1OC | 26.7 µM (inactive) | 25.3 µM (inactive) | 20.8 µM (inactive) | 22.3 | – | 39.8 µM (inactive) | 28.4 µM (inactive) | 24.7 µM (inactive) | 21.1 µM (inactive) | 40.4 µM (inactive) | 20.7 µM (inactive) | 32.4 µM (inactive) | 31.5 µM (inactive) | 27.7 µM (inactive) | 29.9 µM (inactive) | –
10 | COc1cc2c(cc1OC)C(C(=O)O)C(c1ccccc1)N(C)C2=O (stereo not given) | > 100 µM (inactive) | > 100 µM (inactive) | – | – | > 100 µM (inactive) | > 100 µM (inactive) | > 100 µM (inactive) | > 100 µM (inactive) | > 100 µM (inactive) | > 100 µM (inactive) | > 100 µM (inactive) | > 100 µM (inactive) | > 100 µM (inactive) | > 100 µM (inactive) | > 100 µM (inactive) | –
